Read-outs that look alike come from different tables or passages of the source.
Assays:
[1] = molecular target: T1, aldose reductase (Bos taurus, UniProt P16116); assay: in vitro inhibition of aldose reductase (enzyme from bovine lens, modified Hayman and Kinoshita procedure); format: biochemical; conditions: read-out: % inhibition in vitro
T1 construct: preparation of the enzyme from bovine lens; from tissue; host or cells: bovine lens
Description: In the present case the procedure of Hayman and Kinoshita was modified in that the final chromatography step was omitted in the preparation of the enzyme from bovine lens.

[2] = molecular target: T2, aldose reductase (Rattus norvegicus, UniProt P07943); assay: lowering of dulcitol accumulation in vivo in lens, sciatic nerve and diaphragm of galactosemic rats; parameters: species or system rat (Sprague-Dawley); conditions: for ED50: po, 96 h
T2 construct: diminish the accumulation of dulcitol in the lenses, sciatic nerves and diaphragm of rats fed galactose; from tissue; host or cells: lens, sciatic nerve and diaphragm of living male Sprague-Dawley rats
Description: Such experiments are exemplified hereinbelow after the listing of the following general comments pertaining to these experiments:
(a) Four or more groups of six male rats, 50-70 g, Sprague-Dawley strain, were used. The first group, the control group, was fed a mixture of laboratory chow (rodent Laboratory Chow, Purina) and glucose at 20% (w/w %) concentration. The untreated galactosemic group was fed a similar diet in which galactose is substituted for glucose. The third group was fed a diet prepared by mixing a given amount of the test compound with the galactose containing diet. The concentration of galactose in the diet of the treated groups was the same as that for the untreated galactosemic group.
(b) After four days, the animals were killed by decapitation. The eyeballs were removed and punctured with a razor blade; the freed lenses were rolled gently on filter paper and weighed. The sciatic nerves were dissected as completely as possible and weighed. Both tissues when frozen can be kept up to two weeks before being analyzed for dulcitol.
Only two minor reagent changes were made: (a) The rinsing mixture was an aqueous 5% (w/v) trichloroacetic acid solution and (b) the stock solution was prepared by dissolving 25 mg of dulcitol in 100 ml of an aqueous trichloroacetic acid solution. [N.B.: For each experiment the average value found in the tissue from rats fed the glucose diet was subtracted from the individual values found in the corresponding tissue in galactose-fed rats to obtain the amount of polyol accumulated.]
The figures under L, N and D represent the percentage decrease of dulcitol accumulation in the tissues of the lens, sciatic nerve and diaphragm, respectively, for treated rats as compared to untreated rats.

[3] = diaphragm, 23 mg/kg/day in diet
[4] = diaphragm, 24 mg/kg/day in diet
[5] = rat, diaphragm, read-out: ED50, lowering dulcitol accumulation in vivo, D
[6] = rat, sciatic nerve, read-out: ED50, lowering dulcitol accumulation in vivo, N

Compound: O=C1CN(S(=O)(=O)c2cccc3ccc(Br)cc23)C(=O)N1 [Example 14, 1-[(7-bromo-1-naphthalenyl)sulfonyl]-2,4-imidazolidinedione]
- inhibition at 0.1 µM ([1]; 10^-7): 36%
- inhibition at 1 µM [1]: 79%
- inhibition at 10 µM [1]: 93%
- % lowering dulcitol accumulation in vivo, D [2, 3]: 50%
- % lowering dulcitol accumulation in vivo, L ([2]; lens, 23 mg/kg/day in diet): 0%

Compound: O=C1CN(S(=O)(=O)c2cccc3c(I)cccc23)C(=O)N1 [Example 18, 1-[(5-iodo-1-naphthalenyl)sulfonyl]-2,4-imidazolidinedione]
- inhibition at 0.1 µM ([1]; 10^-7): 59%
- % lowering dulcitol accumulation in vivo, D [2, 4]: 74.0%
- % lowering dulcitol accumulation in vivo, L ([2]; lens, 24 mg/kg/day in diet): 33%

Compound: O=C1CN(S(=O)(=O)c2cccc3cc(Br)ccc23)C(=S)N1 [Example 11, 1-[(6-bromo-1-naphthalenyl)sulfonyl]-2-thioxo-4-imidazolidinone]
- inhibition at 10 µM ([1]; 10^-5): 10%
- inhibition at 1 µM ([1]; 10^-6): 9%

Compound: COc1ccc2c(S(=O)(=O)N3CC(=O)NC3=O)cccc2c1C(F)(F)F [Example 6, 1-[[6-Methoxy-5-(trifluoromethyl)-1-naphthalenyl]sulfonyl]-2,4-imidazolidinedione]
- inhibition at 1 µM ([1]; 10^-6): 84%
- inhibition at 0.1 µM ([1]; 10^-7): 43%
- inhibition at 10 µM [1]: 86%
- % lowering dulcitol accumulation in vivo, D ([2]; diaphragm, 86 mg/kg/day in diet, p < 0.01): 87%
- % lowering dulcitol accumulation in vivo, L ([2]; lens, 86 mg/kg/day in diet, p < 0.01): 60%

Compound: O=C1CN(S(=O)(=O)c2ccc3c(Br)cccc3c2)C(=S)N1 [Example 19, 1-[(5-Bromo-2-naphthalenyl)sulfonyl]-2-thioxo-4-imidazolidinone]
- inhibition at 10 µM ([1]; 10^-5): 13%
- inhibition at 1 µM ([1]; 10^-6): 9%

Compound: O=C1CN(S(=O)(=O)c2cccc3ccccc23)C(=S)N1 [Example 9, 1-[(1-Naphthalenyl)sulfonyl]-2-thioxo-4-imidazolidinone]
- inhibition at 10 µM ([1]; 10^-5): 17%

Compound: CN(C)c1cccc2c(S(=O)(=O)N3CC(=O)NC3=O)cccc12 [Example 8, 1-[[5-(Dimethylamino)-1-naphthalenyl]sulfonyl]-2,4-imidazolidinedione]
- inhibition at 1 µM ([1]; 10^-6): 83%
- inhibition at 0.1 µM [1]: 38%
- inhibition at 10 µM [1]: 96%

Compound: O=C1CN(S(=O)(=O)c2ccc(Br)c3ccccc23)C(=S)N1 [Example 3, 1-[(4-bromo-1-naphthalenyl)sulfonyl]-2-thioxo-4-imidazolidinone]
- inhibition at 10 µM ([1]; 10^-5): 53%
- inhibition at 1 µM ([1]; 10^-6): 15%

Compound: COc1ccc2c(C(=S)N(C)CC(=O)O)cccc2c1C(F)(F)F [tolrestat, N-[[6-methoxy-5-(trifluoromethyl)-1-naphthalenyl]thioxomethyl]-N-methylglycine, reference compound]
- % lowering dulcitol accumulation in vivo, D ([2]; rat, in vivo, 11 mg/kg/day): 89

Compound: O=C1CN(S(=O)(=O)c2cccc3c(Cl)cccc23)C(=O)N1 [Example 16, 1-[(5-chloro-1-naphthalenyl)sulfonyl]-2,4-imidazolidinedione]
- inhibition at 10 µM ([1]; 10^-5): 85%
- inhibition at 0.1 µM ([1]; 10^-7): 36%
- inhibition at 1 µM [1]: 79%
- % lowering dulcitol accumulation in vivo, D ([2]; diaphragm, 25 mg/kg/day in diet): 82%
- % lowering dulcitol accumulation in vivo, L ([2]; lens, 25 mg/kg/day in diet): 44%

Compound: O=C1CN(S(=O)(=O)c2cccc3cc(Br)ccc23)C(=O)N1 [Example 12, 1-[(6-bromo-1-naphthalenyl)sulfonyl]-2,4-imidazolidinedione]
- inhibition at 10 µM ([1]; 10^-5): 89%
- inhibition at 1 µM ([1]; 10^-6): 70%
- inhibition at 0.1 µM ([1]; 10^-7): 23%
- % lowering dulcitol accumulation in vivo, D [2, 4]: 0%
- % lowering dulcitol accumulation in vivo, L ([2]; lens, 24 mg/kg/day in diet): 0%

Compound: O=C1CN(S(=O)(=O)c2cccc3c(Br)cccc23)C(=O)N1 [Example 2, 1-[(5-Bromo-1-naphthalenyl)sulfonyl]-2,4-imidazolidinedione]
- inhibition at 10 µM ([1]; 10^-5): 93%
- inhibition at 1 µM ([1]; 10^-6): 89%
- inhibition at 0.1 µM ([1]; 10^-7): 45%
- results compared with tolrestat (in words) ([2]; 4.8 and 10.2 mg/kg/day versus tolrestat 4 and 11 mg/kg/day): comparable results
- % lowering dulcitol accumulation in vivo, D ([2]; diaphragm, 4.8 mg/kg/day in diet): 58%
- % lowering dulcitol accumulation in vivo, D ([2]; diaphragm, 10.2 mg/kg/day in diet): 72%
- % lowering dulcitol accumulation in vivo, D ([2]; diaphragm, 20.7 mg/kg/day in diet): 75%
- % lowering dulcitol accumulation in vivo, D [2, 3]: 81%
- % lowering dulcitol accumulation in vivo, D ([2]; diaphragm, 101 mg/kg/day in diet): 87%
- % lowering dulcitol accumulation in vivo, L ([2]; lens, 10.2 mg/kg/day in diet): 18%
- % lowering dulcitol accumulation in vivo, L ([2]; lens, 20.7 mg/kg/day in diet): 36%
- % lowering dulcitol accumulation in vivo, L ([2]; lens, 23 mg/kg/day in diet): 44%
- % lowering dulcitol accumulation in vivo, L ([2]; lens, 101 mg/kg/day in diet): 79%
- ED50 [2, 5]: 2 mg/kg
- ED50 [2, 6]: 8.1 mg/kg

Compound: O=C1CN(S(=O)(=O)c2cccc3c(I)cccc23)C(=S)N1 [Example 17, 1-[(5-iodo-1-naphthalenyl)sulfonyl]-2-thioxo-4-imidazolidinone]
- inhibition at 10 µM ([1]; 10^-5): 58%
- inhibition at 1 µM ([1]; 10^-6): 24%
- % lowering dulcitol accumulation in vivo, D ([2]; diaphragm, 26 mg/kg/day in diet): 34.0%
- % lowering dulcitol accumulation in vivo, L ([2]; lens, 26 mg/kg/day in diet): 0.0%

Compound: O=C1CN(S(=O)(=O)c2cccc3c(Br)cccc23)C(=S)N1 [Example 1, 1-[(5-Bromo-1-naphthalenyl)sulfonyl]-2-thioxo-4-imidazolidinone]
- inhibition at 10 µM ([1]; 10^-5): 67%
- inhibition at 1 µM ([1]; 10^-6): 17%
- % lowering dulcitol accumulation in vivo, D [2, 4]: 61%
- % lowering dulcitol accumulation in vivo, D ([2]; diaphragm, 48 mg/kg/day in diet, p < 0.01): 64%
- % lowering dulcitol accumulation in vivo, D ([2]; diaphragm, 109 mg/kg/day in diet): 86%
- % lowering dulcitol accumulation in vivo, L ([2]; lens, 24 mg/kg/day in diet): 24%
- % lowering dulcitol accumulation in vivo, L ([2]; lens, 48 mg/kg/day in diet, p < 0.01): 40%
- % lowering dulcitol accumulation in vivo, L ([2]; lens, 109 mg/kg/day in diet): 49%
- ED50 [2, 5]: 18 mg/kg
- ED50 ([2]; rat, lens, read-out: ED50, lowering dulcitol accumulation in vivo, L): 99 mg/kg
- ED50 [2, 6]: 22 mg/kg

Compound: O=C1CN(S(=O)(=O)c2cccc3ccccc23)C(=O)N1 [Example 10, 1-[(1-Naphthalenyl)sulfonyl]-2,4-imidazolidinedione]
- inhibition at 10 µM ([1]; 10^-5): 89%
- inhibition at 1 µM ([1]; 10^-6): 59%
- inhibition at 0.1 µM ([1]; 10^-7): 14%
- % lowering dulcitol accumulation in vivo, D [2, 3]: 31%
- % lowering dulcitol accumulation in vivo, L ([2]; lens, 23 mg/kg/day in diet): 10%

Compound: O=C1CN(S(=O)(=O)c2ccc(Br)c3ccccc23)C(=O)N1 [Example 4, 1-[(4-bromo-1-naphthalenyl)sulfonyl]-2,4-imidazolidinedione]
- inhibition at 10 µM ([1]; 10^-5): 92%
- inhibition at 1 µM ([1]; 10^-6): 81%
- inhibition at 0.1 µM ([1]; 10^-7): 31%
- % lowering dulcitol accumulation in vivo, D [2, 4]: 27%

Compound: COc1ccc2c(S(=O)(=O)N3CC(=O)NC3=S)cccc2c1C(F)(F)F [Example 5, 1-[[6-methoxy-5-(trifluoromethyl)-1-naphthalenyl]sulfonyl]-2-thioxo-4-imidazolidinone]
- inhibition at 1 µM ([1]; 10^-6): 15%
- inhibition at 10 µM [1]: 40%

Compound: O=C1CN(S(=O)(=O)c2cccc3ccc(Br)cc23)C(=S)N1 [Example 13, 1-[(7-bromo-1-naphthalenyl)sulfonyl]-2-thioxo-4-imidazolidinone]
- inhibition at 1 µM ([1]; 10^-6): 16%
- inhibition at 10 µM [1]: 46%

Compound: O=C1CN(S(=O)(=O)c2ccc3c(Br)cccc3c2)C(=O)N1 [Example 20, 1-[(5-Bromo-2-naphthalenyl)sulfonyl]-2,4-imidazolidinedione]
- inhibition at 10 µM ([1]; 10^-5): 89%
- inhibition at 1 µM ([1]; 10^-6): 77%
- inhibition at 0.1 µM ([1]; 10^-7): 24%
- % lowering dulcitol accumulation in vivo, L ([2]; lens, 24 mg/kg/day in diet): N.S.

Compound: CN(C)c1cccc2c(S(=O)(=O)N3CC(=O)NC3=S)cccc12 [Example 7, 1-[[5-(dimethylamino)-1-naphthalenyl]sulfonyl]-2-thioxo-4-imidazolidinone]
- inhibition at 10 µM ([1]; 10^-5): 58%
- inhibition at 1 µM ([1]; 10^-6): 12%

Compound: O=C1CN(S(=O)(=O)c2cccc3c(Cl)cccc23)C(=S)N1 [Example 15, 1-[(5-chloro-1-naphthalenyl)sulfonyl]-2-thioxo-4-imidazolidinone]
- inhibition at 10 µM ([1]; 10^-5): 43%
- inhibition at 1 µM ([1]; 10^-6): 14%

Source: patent publication US4743611A, “Naphthalenylsulfonylimidazolidinediones and their thioxo analogs useful as aldose reductase inhibitors” (American Home Products Corp., priority 1987, dated 1988)
